Experiment [1] has as its target E. faecium γ-CA (Efγ-CA) (Enterococcus faecium, UniProt Q3XX77). The experiment is described as follows: biochemical. It is filed as biochemical. The procedure: (§1) Both Efα-CA and Efγ-CA were recombinantly expressed and purified as follows. A pHis2 plasmid (GenScript) containing either the Efα-CA sequence or Efγ-CA sequence was used for the expression of hexa-histidine tagged protein in a bacterial culture. […] Starter cultures were grown at 37 °C with shaking at 225 rpm overnight. One litre of autoclaved Luria-Bertani broth containing 100 µg/mL ampicillin and 1 mM ZiCl2 was inoculated with a 10-ml aliquot of the starter culture and grown at 37 °C with shaking at 225 rpm to an OD of 0.8 before being cold shocked and induced with 500 µL of IPTG (1 M). The induced cultures were grown for 16 h at 17 °C with shaking at 225 rpm. Bacterial cell pellets were spun down at 4000 g for 20 min and resuspended in 1× PBS containing 0.5 mM TCEP, 5% glycerol, pH = 7.4 to which 5 mg lysozyme was added to aid in lysis. The resuspended bacterial cells were incubated on ice for 20 min and then lysed via sonication. Lysed bacterial cells were pelleted by centrifugation at 14,000 g for 1 h to remove cellular debris, and the supernatant was loaded onto a nickel-NTA column equilibrated with 1x PBS containing 0.5 mM TCEP, 5% glycerol, pH = 7.4. Once flowthrough was collected, the protein was eluted using a 0–500 mM imidazole stepwise gradient in the same equilibration buffer, and fractions were collected. Fractions that contained the desired protein, as determined by SDS-PAGE, were combined and subjected to TEV protease for His-tag cleavage. After the addition of TEV, the protein was dialysed for 4 h against 1× PBS containing 0.5 mM TCEP, 5% glycerol, pH = 7.4. The dialysed protein solution was loaded back onto a nickel-NTA column equilibrated with 1x PBS containing 0.5 mM TCEP, 5% glycerol, pH = 7.4 for the subtraction of TEV followed by its elution with the same buffer containing 500 mM imidazole. The protein eluted prior to the imidazole was concentrated using Amicon Ultra Centrifugal Filters and purified by size-exclusion chromatography (SEC) on an S100 column using running buffer 1x PBS containing 0.5 mM TCEP, 5% glycerol, pH = 7.4. Fractions that contained the protein of interest as confirmed by SDS-PAGE were concentrated, flash frozen, and placed in −80 °C for future use.
(§2) The assay was performed according to previously published protocols. Recombinant Efα-CA and Efγ-CA was obtained as described above and hCA I and hCA II were purchased from Millipore Sigma (hCA I Catalog# C4396-5MG; hCA II Catalog #C6624-500UG). Ki values were determined from inputting the IC50 values into the Cheng–Prusoff equation[25] for Ki from catalytic inhibition constants.

Experiment [2] addresses E. faecium α-CA (Efα-CA) (Enterococcus faecium, UniProt Q3XYE8). It is filed as biochemical. The procedure:
as §1, §2

In experiment [3] the target is human CA I (hCAI). Details: method as in PMID 24316122. To be noted: previously reported; read-out: Ki hCA I; cited from earlier work.
Experiment [4] has as its target human CA II (hCAII). Details: method as in PMID 24316122. The conditions noted are these: previously reported; read-out: Ki hCA II; cited from earlier work.
Experiment [5] deals with VRE strains. To be noted: full data set published by Kaur et al.; cited from earlier work.
[6] abbreviates: Ki Efγ-CA, recombinant Efγ-CA, Ki from IC50 via Cheng–Prusoff.
[7] abbreviates: read-out: Ki Efα-CA; recombinant Efα-CA; Ki from IC50 via Cheng–Prusoff.
The mark [8] stands for this setting: recombinant Efγ-CA, Ki from IC50 via Cheng–Prusoff, read-out: Ki Efγ-CA.
[9] abbreviates: recombinant Efα-CA; Ki from IC50 via Cheng–Prusoff; read-out: Ki Efα-CA.

Values after ≈ are worked out from the molar mass of the structure shown. Values joined by “and” are separate entries in the source; they are usually repeats but may differ in a detail not shown here. Identical values can stand only once. Like-named read-outs stand apart in the source and are kept apart here.

The values that follow come from article PMC9246096, “Structure-activity relationship studies for inhibitors for vancomycin-resistant Enterococcus and human carbonic anhydrases” (Journal of Enzyme Inhibition and Medicinal Chemistry, 2022).

Chain of E. faecium α-CA (Efα-CA) (Q3XYE8 entry or part of it): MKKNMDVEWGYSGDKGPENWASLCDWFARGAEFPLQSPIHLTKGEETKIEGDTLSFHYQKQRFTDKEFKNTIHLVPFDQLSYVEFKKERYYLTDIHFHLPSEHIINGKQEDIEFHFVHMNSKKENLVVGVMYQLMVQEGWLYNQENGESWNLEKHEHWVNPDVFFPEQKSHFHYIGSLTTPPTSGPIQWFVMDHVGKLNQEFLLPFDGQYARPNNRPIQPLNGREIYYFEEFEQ
Chain of E. faecium γ-CA (Efγ-CA) (Q3XX77 entry or part of it): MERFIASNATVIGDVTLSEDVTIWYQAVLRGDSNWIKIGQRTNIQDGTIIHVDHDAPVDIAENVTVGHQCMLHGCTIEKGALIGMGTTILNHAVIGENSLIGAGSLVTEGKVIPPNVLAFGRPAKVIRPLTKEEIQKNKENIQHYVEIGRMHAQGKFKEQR

For orientation: Ki means the equilibrium dissociation constant of an inhibitor or competing ligand from its target. Turning to `CCC(=O)Nc1nnc(S(N)(=O)=O)s1` [Cmpd 1], the Ki was 0.25 µM in experiment [1] (setting [6]) and 0.0375 µM in experiment [2] (setting [7]).
For the compound `CC(C)C(=O)Nc1nnc(S(N)(=O)=O)s1` [Cmpd 2], the Ki in experiment [1] (setting [6]) is 0.218 µM; in experiment [2] (setting [7]), 0.0237 µM; in experiment [3], 0.18 µM.
Take `CC(C)(C)C(=O)Nc1nnc(S(N)(=O)=O)s1` [Cmpd 3]: the inhibitory constant (Ki) in experiment [1] (setting [6]) is 0.441 µM; in experiment [2] (setting [7]), 0.0298 µM; in experiment [3], 0.167 µM.
Consider `CCCC(=O)Nc1nnc(S(N)(=O)=O)s1` [Cmpd 4], for which the results for the inhibition constant (Ki) in experiment [1] (setting [6]) and in experiment [2] (setting [7]) were 0.325 µM and 0.0501 µM, respectively.
Consider `CC(C)CC(=O)Nc1nnc(S(N)(=O)=O)s1` [Cmpd 5], for which the Ki in experiment [4] was 0.0556 µM; in experiment [1] (setting [8]) it was 0.279 µM; in experiment [2] (setting [9]), 0.0627 µM; in experiment [3] it was 0.215 µM.
The MIC is the lowest concentration found to suppress growth. Regarding `CC(C)(C)CC(=O)Nc1nnc(S(N)(=O)=O)s1` [Cmpd 6], the Ki in experiment [4] is 0.0073 µM; in experiment [1] (setting [8]) it was 0.389 µM; in experiment [2] (setting [9]), 0.0696 µM; in experiment [3], 0.231 µM. For the same compound, in experiment [5], the MIC is reported as 0.015 µg/mL (≈ 0.0539 µM).
With `CCCCCCC(=O)Nc1nnc(S(N)(=O)=O)s1` [Cmpd 7], the Ki in experiment [4] was 0.0227 µM; in experiment [1] (setting [8]), 0.632 µM; in experiment [2] (setting [9]), 0.0788 µM; in experiment [3], 0.328 µM. In experiment [5], the MIC is 0.015 µg/mL (≈ 0.0513 µM).
As to `NS(=O)(=O)c1nnc(NC(=O)C2CC2)s1` [Cmpd 8], the Ki in experiment [4] was 0.0246 µM; in experiment [1] (setting [8]), 0.193 µM; in experiment [2] (setting [9]), 0.0362 µM; in experiment [3] it was 0.157 µM.
Take `NS(=O)(=O)c1nnc(NC(=O)C2CCC2)s1` [Cmpd 9]: the Ki in experiment [4] was 0.0415 µM; in experiment [1] (setting [8]) it was 0.286 µM; in experiment [2] (setting [9]) it was 0.0272 µM; in experiment [3] it was 0.125 µM.
On to `NS(=O)(=O)c1nnc(NC(=O)C2CCCC2)s1` [Cmpd 10], for which the Ki in experiment [4] is 0.0262 µM; in experiment [1] (setting [8]) it was 0.195 µM; in experiment [2] (setting [9]), 0.0098 µM; in experiment [3], 0.0765 µM.
With `NS(=O)(=O)c1nnc(NC(=O)C2CCCCC2)s1` [Cmpd 11], the Ki in experiment [1] (setting [6]) was 0.131 µM; in experiment [2] (setting [7]), 0.0493 µM; in experiment [3], 0.0633 µM.
Consider `CC1(C(=O)Nc2nnc(S(N)(=O)=O)s2)CCCCC1` [Cmpd 12], for which the Ki in experiment [4] is 0.0477 µM; in experiment [1] (setting [8]), 0.24 µM; in experiment [2] (setting [9]) it was 0.0445 µM; in experiment [3], 0.117 µM.
Consider `CC1CCC(C(=O)Nc2nnc(S(N)(=O)=O)s2)CC1` (stereo not shown) [Cmpd 13], for which the Ki in experiment [4] is 0.026 µM; in experiment [1] (setting [8]), 0.345 µM; in experiment [2] (setting [9]) it was 0.0296 µM; in experiment [3], 0.152 µM.
Regarding `NS(=O)(=O)c1nnc(NC(=O)c2ccccc2)s1` [Cmpd 14], the Ki was 0.0948 µM in experiment [1] (setting [6]) and 0.109 µM in experiment [3].
Consider `NS(=O)(=O)c1nnc(NC(=O)CC2CC2)s1` [Cmpd 15], for which the Ki in experiment [4] is 0.0076 µM; in experiment [1] (setting [8]) it was 0.311 µM; in experiment [2] (setting [9]) it was 0.0117 µM; in experiment [3], 0.372 µM.
As to `NS(=O)(=O)c1nnc(NC(=O)CC2CCC2)s1` [Cmpd 16], the Ki in experiment [4] was 0.0049 µM; in experiment [1] (setting [8]) it was 0.408 µM; in experiment [2] (setting [9]), 0.0184 µM; in experiment [3], 0.0778 µM.
Take `NS(=O)(=O)c1nnc(NC(=O)CC2CCCC2)s1` [Cmpd 17]: the Ki in experiment [4] was 0.0194 µM; in experiment [1] (setting [8]) it was 0.233 µM; in experiment [2] (setting [9]), 0.0219 µM; in experiment [3] it was 0.0863 µM. Also, the “fold reduced potency against Efα-CA” value in experiment [2] (compared to matched molecular paired analog 10) is “about 2 fold”.
As for `NS(=O)(=O)c1nnc(NC(=O)CC2CCCCC2)s1` [Cmpd 18], the Ki was 0.305 µM in experiment [1] (setting [6]), 0.0145 µM in experiment [2] (setting [7]) and 0.0587 µM in experiment [3].
As to `NS(=O)(=O)c1nnc(NC(=O)CCC2CCCC2)s1` [Cmpd 19], the Ki is 0.0102 µM in experiment [4], 0.245 µM in experiment [1] (setting [8]), 0.0393 µM in experiment [2] (setting [9]) and 0.19 µM in experiment [3].
With `NS(=O)(=O)c1nnc(NC(=O)CCC2CCCCC2)s1` [Cmpd 20], the Ki is 0.346 µM in experiment [1] (setting [6]) and 0.946 µM in experiment [3]. The MIC in experiment [5] is recorded as 0.007 µg/mL (≈ 0.022 µM).
Turning to `NS(=O)(=O)c1nnc(NC(=O)CCc2ccccc2)s1` [Cmpd 21], in experiment [3], the Ki was 0.855 µM.
`NS(=O)(=O)c1nnc(NC(=O)CN2CCCC2)s1` [Cmpd 22]: the Ki in experiment [4] was 0.0581 µM; in experiment [1] (setting [8]), 0.0928 µM; in experiment [2] (setting [9]), 0.0381 µM; in experiment [3] it was 0.0647 µM.
For the compound `NS(=O)(=O)c1nnc(NC(=O)CN2CCCCC2)s1` [Cmpd 23], the Ki in experiment [4] was 0.0209 µM; in experiment [1] (setting [8]), 0.111 µM; in experiment [2] (setting [9]) it was 0.0295 µM; in experiment [3], 0.0534 µM.
Regarding `NS(=O)(=O)c1nnc(NC(=O)CN2CCOCC2)s1` [Cmpd 24], the Ki in experiment [1] (setting [6]) came out at 0.0564 µM.
For `CN1CCN(CC(=O)Nc2nnc(S(N)(=O)=O)s2)CC1` [Cmpd 25], the values for the Ki in experiment [1] (setting [6]) and in experiment [2] (setting [7]) were 0.0647 µM and 0.0815 µM, respectively.
Turning to `CCNc1nnc(S(N)(=O)=O)s1` [Cmpd 26], the inhibitory constant (Ki) was 0.505 µM in experiment [1] (setting [6]), 0.165 µM in experiment [2] (setting [7]) and 0.701 µM in experiment [3].
Consider `NS(=O)(=O)c1nnc(NCC2CCCCC2)s1` [Cmpd 27], for which the Ki in experiment [1] (setting [6]) was 0.398 µM; in experiment [2] (setting [7]) it was 0.117 µM; in experiment [3] it was 1.14 µM.
Consider `NS(=O)(=O)c1nnc(NCc2ccccc2)s1` [Cmpd 28], for which the Ki in experiment [1] (setting [8]) was 0.282 µM; in experiment [2] (setting [9]) it was 0.163 µM; in experiment [3] it was 1.62 µM.
As to `CC(=O)Nc1ncc(S(N)(=O)=O)s1` [Cmpd 29], the Ki in experiment [4] was 0.0972 µM; in experiment [1] (setting [8]), 1.13 µM; in experiment [2] (setting [9]), 0.375 µM; in experiment [3], 0.465 µM. In addition, the “fold reduction in binding affinity against Efγ-CA” value in experiment [1] (compared to AZM) came to 3.5 fold. Moreover, the “fold reduction in binding affinity against Efα-CA” value in experiment [2] (compared to AZM) was 6 fold and 7 fold.
Regarding `CC(=O)Nc1ccc(S(N)(=O)=O)cc1` [Cmpd 30], the Ki was 0.0677 µM in experiment [4], 0.529 µM in experiment [1] (read-out: Ki Efγ-CA), 0.18 µM in experiment [2] (read-out: Ki Efα-CA) and 1.33 µM in experiment [3].
